Each structure is given as a SMILES string.

For data set [1] the following is noted: cited from earlier work.
Data set [2] has as its system Chick Chorioallantoic Membrane (CAM) vasculature. Nature of the data set: Chick chorioallantoic membrane (CAM) angiogenesis assay. The conditions noted are these: for INHIBITION/N: 48 hours exposure; for effect on angiogenesis: 48 hours after application to the CAM.
Setting [3] is: within 48 hours, depending on concentration.

On to `O=C1c2c(O)ccc(O)c2C(=O)c2c(NCCNCCO)ccc(NCCNCCO)c21` [mitoxantrone], for which, in data set [1], the solubility in water entry is “insoluble in water”. The values for the INHIBITION/N in data set [2] (1 μg in methylcellulose (10 μl) disk on CAM), in data set [2] (5 μg in methylcellulose (10 μl) disk on CAM) and in data set [2] (10 μg in methylcellulose (10 μl) disk on CAM) were 18/24, 21/24 and 18/22, respectively. Further, in data set [2], the effect on angiogenesis entry was “angiogenesis was inhibited”. Moreover, the “maximal avascular zone diameter” value in data set [2] (setting [3]) is 6 mm. The “maximal avascular zone on the avascular gradient scale” value in data set [2] (setting [3]) came to 3.
With `CC(=O)O[C@H]1C(=O)[C@@]2(C)[C@H]([C@H](OC(=O)c3ccccc3)[C@]3(O)C[C@H](OC(=O)[C@H](O)[C@@H](NC(=O)c4ccccc4)c4ccccc4)C(C)=C1C3(C)C)[C@]1(OC(C)=O)CO[C@@H]1C[C@@H]2O` [paclitaxel], the effect on angiogenesis result in data set [2] was “angiogenesis was inhibited”. Also, the “maximal avascular zone on the avascular gradient scale” value in data set [2] (setting [3]) was 3.
